Results published in patent US11767520B2, “Compositions and methods for treating lung inflammation” (aTyr Pharma, Inc., priority 2017, dated 2023).

How the values were obtained:
[1] = Body weight, BLM rat model (Example 2); format: in vivo, rat (male Sprague Dawley); conditions: BLM-induced rats; Nintedanib 60 mg/kg PO daily; Test Article = HRS^FC1 0.1-3 mg/kg IV weekly
Description: (§1) PBS or BLM was administered under isoflurane anesthesia.
(§2) In-life, body weights were measured and clinical observations were conducted daily. On Day 8 and Day 15, animals were removed from their home cages and placed individually into whole body plethysmography chambers. After a 20-minute acclimatization phase, respiratory parameters were recorded for 10 minutes.

[2] = Body weight, BLM mouse model (Example 1); format: in vivo, mouse (male C57Bl/6J); conditions: BLM-induced mice; daily PO from Day 0: dexamethasone 0.25 mg/kg, Nintedanib 60 mg/kg
Description: (§3) Lung inflammation and fibrosis were induced in male C57Bl/6J mice by oropharyngeal administration of BLM. After the habituation phase mice were randomized based on body weight over the different groups. Under isoflurane anesthesia, 50 μl PBS or BLM was dripped onto the vocal cords facilitating aspiration. Mice were sacrificed at day 21 using a terminal bleed under isoflurane anesthesia.
(§4) Daily oral treatments commenced on Day 0, while daily IV treatments commenced on Day 8. Dosing was planned to continue until the day of termination (Day 21), however, due to high mortality in IV treated groups (see results), IV dosing was skipped on Day 19 and Day 20. […] Subsequently, the mice received 8% D20 (Kinemed, Emeryville) drinking water until sacrifice to maintain labeling of newly formed collagen. Body weight was monitored three times a week.

[3] = system: bleomycin-induced lung fibrosis; assay: Histological fibrosis (modified Ashcroft) score, BLM rat model (Example 2); format: in vivo, rat (male Sprague Dawley); conditions: BLM-induced rats
Description: The five lung lobes were collected and weighed. The right lung lobes were inflated and fixed in 10% neutral buffered formalin and embedded in paraffin for histological analysis. An approximately 50 mg piece of the left lung lobe was snap frozen and stored at −80° C. for potential RNA analysis. The remainder of the lobe was also snap frozen until analyzed for collagen content.
(§5) Sections for histology were stained using picrosirius red and were scored in a blinded fashion (1 score for each of the 4 lobes) by a veterinary pathologist using a modified Ashcroft score (Hubner et al., 2008). Hydroxyproline content was determined in the left lung lobe using a mass spectrometry method.
(§6) Slides were read by a veterinary pathologist and each of the 4 lobes evaluated was assigned 4 scores [Ashcroft for fibrosis (scores range from 0 to 8), perivascular/peribronchiolar inflammatory cell infiltrate (scores range from 0 to 5), interstitial/alveolar inflammatory cell infiltrate (scores range from 0 to 5), type II pneumocyte hyperplasia (scores range from 0 to 5)].
Having noted the high variability in mean Ashcroft Index Scores within groups and also in lung pathology within each individual due to the focal nature of the model, we analyzed Ashcroft scores from all fields scored (4 per animal), which increased the number of observations to 24-32 in BLM-induced groups.

[4] = system: bleomycin-induced respiratory impairment; assay: Respiratory measurements by whole body plethysmography, BLM rat model (Example 2, Table E4); format: in vivo, rat (male Sprague Dawley); conditions: for Expiratory Time / Inspiratory Time / Peak Expiratory Flow / Peak Inspiratory Flow / Tidal Volume / Respiratory Rate / Respiratory Minute Volume: Ninte. 60 mg/kg PO daily from Day 1, mean; for Respiratory Rate: in breaths/min (unit assumed); for Respiratory Minute Volume: in mL/min (unit assumed)
Description: as §1, §2

[5] = system: bleomycin-induced lung inflammation and fibrosis; assay: Cell counts in BAL fluid, BLM mouse model (Example 1); format: in vivo, mouse (male C57Bl/6J); conditions: BLM-induced mice; daily PO from Day 0: dexamethasone 0.25 mg/kg, Nintedanib 60 mg/kg; vs PO vehicle
Description: as §3, §4
The lungs were flushed two times with 750 μl PBS, combined into one bronchoalveolar lavage (BAL) sample, and stored on ice until centrifugation. The supernatant was collected and stored frozen (<−70° C.). The erythrocytes in the cell pellet were lysed and the remaining cells were resuspended in 100 μl PBS. 20 μl was diluted in trypan blue solution and used for counting the live cells using a hemocytometer.

[6] = system: bleomycin-induced lung inflammation; assay: Interstitial/alveolar inflammatory cell infiltrate score, BLM rat model, combination study (Example 3); format: in vivo, rat (male Sprague Dawley); conditions: BLM-induced rats; alone or in combination, vs PO plus IV vehicles; data not shown
Description: The five lung lobes were collected and weighed. On Day 17, the right accessory lobe was retained and desiccated to obtain dry weight. The remaining right lung lobes were inflated and fixed in 10% neutral buffered formalin and embedded in paraffin for histological analysis. An approximately 50 mg piece of the left lung lobe was snap frozen and stored at −80° C. for potential RNA analysis. The remainder of the lobe was also snap frozen until analyzed for collagen content.
as §5, with “3-4” for “4”
as §6, with “the 3” for “the 4”, “4 score types” for “4 scores”

With COC(=O)c1ccc2c(c1)NC(=O)/C2=C(\Nc1ccc(N(C)C(=O)CN2CCN(C)CC2)cc1)c1ccccc1 [Nintedanib, nintedanib] the “Body weight curves vs respective controls” value [1] was “None of the groups treated with Nintedanib or Test Article had body weight curves that significantly differed”, the “Body weight, of initial body weights” value [2] was “around 90%” and the “Decrease of group mean Ashcroft score vs respective vehicle” value ([3]; Day 22, Nintedanib PO, Test Article = HRS^FC1 1 mg/kg IV on Days 2, 9 and 16, not significant) was 5%. For the same molecule, the “Group mean Ashcroft score, significance vs respective vehicle” value ([3]; Day 22, Nintedanib PO, Test Article = HRS^FC1 IV) was “did not meet statistical criteria”, the “Overall effects in this experiment” value ([3]; Nintedanib (50 mg/kg/dose) starting on Day 9, as printed in Summary) was “no significant effects” and the “BLM-induced alterations in respiratory parameters” value ([4]; BLM-induced rats, Day 15, Nintedanib 60 mg/kg PO, Test Article = HRS^FC1 IV weekly) was “did not significantly impact”. The “Respiratory minute volume (RMV)” value ([4]; BLM-induced rats, Day 15, Nintedanib PO, Test Article = HRS^FC1 0.1-3 mg/kg from Day 9 or Day 2, FIG. 3) was “no impact on RMV”, the Expiratory Time ([4]; Day 8) was 0.12 s and the Inspiratory Time ([4]; Day 8) was 0.09 s. For the same molecule, the “Peak Expiratory Flow” value ([4]; Day 8) was 28.4, the “Peak Inspiratory Flow” value ([4]; Day 8) was 26.7 and the Tidal Volume ([4]; Day 8) was 1.5 mL. For the same molecule, the “Respiratory Rate” value ([4]; Day 8) was 313.0, the “Respiratory Minute Volume” value ([4]; Day 8) was 477.5 and the Expiratory Time ([4]; Day 15) was 0.12 s. The Inspiratory Time ([4]; Day 15) was 0.09 s, the “Peak Expiratory Flow” value ([4]; Day 15) was 28.8 and the “Peak Inspiratory Flow” value ([4]; Day 15) was 29.0. For the same molecule, the Tidal Volume ([4]; Day 15) was 1.6 mL, the “Respiratory Rate” value ([4]; Day 15) was 317.3 and the “Respiratory Minute Volume” value ([4]; Day 15) was 534.6. For the same molecule, the “Live cells counted in BAL fluid at termination” value [5] was “did not significantly affect” and the “Interstitial inflammatory cell infiltrate” value [6] was “no significant effect”.
